The values below come from PubChem BioAssay (NCI).

Among the test systems are HCT-15 colon; HOP-62 NSCLC; LOX IMVI melanoma; NCI/ADR-RES ovarian; OVCAR-4 ovarian; RPMI-8226 leukemia; SF-295 CNS; SK-MEL-2 melanoma; SK-MEL-28 melanoma; SN12C renal.
Experiment in all cases: NCI tumour cell line growth inhibition, 48 h

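In this assay, cells in 96-well plates receive the compound at five concentrations for 48 hours. Endpoints are linearly interpolated between the surrounding concentrations. Here, GI50 denotes the concentration required for 50% inhibition of growth. The concentration for full growth arrest is given as TGI.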

In the case of `COc1ccc(-c2nn(-c3cccc(NC(=O)c4ccc(N5CCOCC5)c(C(F)(F)F)c4)c3)cc2-c2ccncc2)cc1Cl`, the GI50 in the assay with HCT-15 colon is 2.99 µM; in the assay with HOP-62 NSCLC it was 11.4 µM; in the assay with LOX IMVI melanoma, 9.98 µM; with NCI/ADR-RES ovarian, 3.41 µM; in the assay with OVCAR-4 ovarian it was 36.2 µM; in the assay with RPMI-8226 leukemia it was 2.06 µM. Further, the GI50 with SF-295 CNS is 2.31 µM; in the assay with SK-MEL-2 melanoma it was 16.3 µM; in the assay with SK-MEL-28 melanoma it was 9.97 µM; in the assay with SN12C renal, over 50 µM. Moreover, the TGI in the assay on HCT-15 colon is over 50 µM; in the assay with HOP-62 NSCLC, over 50 µM; in the assay on LOX IMVI melanoma, over 50 µM; in the assay on NCI/ADR-RES ovarian it was 24.5 µM; in the assay with OVCAR-4 ovarian it was over 50 µM; in the assay on RPMI-8226 leukemia, over 50 µM. The TGI in the assay with SF-295 CNS, in the assay on SK-MEL-2 melanoma, in the assay with SK-MEL-28 melanoma and with SN12C renal was over 50 µM throughout.
For the compound `COC(=O)[C@@H](C)C[C@H](Cc1ccccc1)NC(=O)c1csc([C@@H](C[C@H](C(C)C)N(C)C(=O)[C@H](C)NC(=O)[C@H]2CCCCN2C)OC(C)=O)n1`, the GI50 was 3.37 µM in the assay on HCT-15 colon; 3.27 µM in the assay with HOP-62 NSCLC; 1.74 µM in the assay with LOX IMVI melanoma; over 25 µM with NCI/ADR-RES ovarian; 2.05 µM in the assay on OVCAR-4 ovarian; 0.567 µM in the assay with RPMI-8226 leukemia. Further, the GI50 with SF-295 CNS was 3.95 µM; in the assay on SK-MEL-2 melanoma, 0.929 µM; in the assay on SK-MEL-28 melanoma, over 25 µM; with SN12C renal, 2.08 µM. Also, the TGI in the assay on HCT-15 colon, in the assay on HOP-62 NSCLC, in the assay on LOX IMVI melanoma, in the assay on NCI/ADR-RES ovarian, in the assay on OVCAR-4 ovarian and in the assay with RPMI-8226 leukemia was over 25 µM in each case. In addition, the TGI in the assay on SF-295 CNS, in the assay on SK-MEL-2 melanoma, in the assay with SK-MEL-28 melanoma and in the assay with SN12C renal was over 25 µM each time.
`C=C1c2c(Cl)ccc(O)c2C(O)=C2C(=O)[C@]3(O)C(O)=C(C(N)=O)C(=O)[C@@H](N(C)C)[C@@H]3[C@@H](O)[C@H]12`: the GI50 with HCT-15 colon was 1.44 µM; with HOP-62 NSCLC, 0.984 µM; in the assay on LOX IMVI melanoma, 0.924 µM; with NCI/ADR-RES ovarian it was 2.43 µM; in the assay on OVCAR-4 ovarian, 0.347 µM; with RPMI-8226 leukemia, 1.1 µM. Besides, the GI50 with SF-295 CNS was 1.19 µM; with SK-MEL-2 melanoma it was 0.727 µM; in the assay on SK-MEL-28 melanoma, 1.08 µM; in the assay with SN12C renal it was 1.38 µM. Further, the TGI is over 50 µM with HCT-15 colon; 3.1 µM in the assay on HOP-62 NSCLC; 3.59 µM in the assay on LOX IMVI melanoma; over 50 µM in the assay with NCI/ADR-RES ovarian; 9.66 µM with OVCAR-4 ovarian; 4.25 µM in the assay with RPMI-8226 leukemia. Besides, the TGI is 5 µM in the assay on SF-295 CNS, 1.98 µM in the assay with SK-MEL-2 melanoma, 4.45 µM in the assay on SK-MEL-28 melanoma and 12.4 µM with SN12C renal.
As for `C/C=C(\C)C(=O)N[C@H]1C(O)C[C@]2(C)C3CC[C@@]4(C)C(CC[C@@H]4C(C)N(C)C)C3CCC2C1O` (stereo not given in full), the GI50 was 1.71 µM with HCT-15 colon; 5.97 µM in the assay with HOP-62 NSCLC; 1.81 µM with LOX IMVI melanoma; 18.4 µM in the assay with NCI/ADR-RES ovarian; 8.52 µM in the assay with OVCAR-4 ovarian; 5.95 µM with RPMI-8226 leukemia. The GI50 with SF-295 CNS is 8.83 µM; in the assay with SK-MEL-2 melanoma, 24.1 µM; in the assay on SK-MEL-28 melanoma it was 2.04 µM; in the assay with SN12C renal, 8.47 µM. Besides, the TGI with HCT-15 colon is 5.01 µM; in the assay with HOP-62 NSCLC, 11.8 µM; in the assay with LOX IMVI melanoma, 4.7 µM; with NCI/ADR-RES ovarian, over 75.5 µM; in the assay on OVCAR-4 ovarian it was over 100 µM; in the assay on RPMI-8226 leukemia, 25.5 µM. Also, the TGI in the assay with SF-295 CNS amounted to 29 µM; with SK-MEL-2 melanoma, 49.1 µM; in the assay with SK-MEL-28 melanoma, 3.83 µM; in the assay with SN12C renal it was 37.9 µM.
In the case of `CCc1nc(N)nc(N)c1-c1ccc(Cl)c(N=CN(C)C)c1`, the TGI in the assay on HCT-15 colon, in the assay on HOP-62 NSCLC, in the assay with LOX IMVI melanoma, in the assay with NCI/ADR-RES ovarian, in the assay on OVCAR-4 ovarian and in the assay on RPMI-8226 leukemia was over 100 µM each time. Besides, the TGI in the assay with SF-295 CNS, in the assay on SK-MEL-2 melanoma, in the assay with SK-MEL-28 melanoma and in the assay with SN12C renal was over 100 µM throughout.
In the case of `CN(C)CCN1C(=O)c2cccc3cccc(c23)C1=O`, the GI50 in the assay on HCT-15 colon was 11.4 µM; in the assay on HOP-62 NSCLC, over 25 µM; with LOX IMVI melanoma it was 10.6 µM; with NCI/ADR-RES ovarian, 19.6 µM; with OVCAR-4 ovarian, over 25 µM; with RPMI-8226 leukemia it was 16.6 µM. Besides, the GI50 in the assay with SF-295 CNS was 11.1 µM; with SK-MEL-2 melanoma, over 25 µM; with SK-MEL-28 melanoma, over 25 µM; in the assay on SN12C renal, 12.7 µM. The TGI in the assay on HCT-15 colon, with HOP-62 NSCLC, in the assay with LOX IMVI melanoma, in the assay on NCI/ADR-RES ovarian, in the assay with OVCAR-4 ovarian and in the assay on RPMI-8226 leukemia was over 25 µM in each case. The TGI in the assay on SF-295 CNS, with SK-MEL-2 melanoma, in the assay on SK-MEL-28 melanoma and in the assay on SN12C renal was over 25 µM in each case.
Regarding `CC(Br)C(=O)Nc1ccc(C(=O)O)c(O)c1` (stereo not given), the TGI in the assay with HCT-15 colon, in the assay on HOP-62 NSCLC, with LOX IMVI melanoma, in the assay on NCI/ADR-RES ovarian, with OVCAR-4 ovarian and with RPMI-8226 leukemia was over 100 µM each time. The TGI with SF-295 CNS was over 100 µM; with SK-MEL-2 melanoma, over 100 µM; in the assay on SK-MEL-28 melanoma, over 100 µM; in the assay on SN12C renal, 66.1 µM.
On to `Cn1c(=O)c(Oc2ccc(F)cc2F)cc2cnc(NCCS(C)(=O)=O)nc21`, for which the GI50 with HCT-15 colon, with HOP-62 NSCLC, in the assay with LOX IMVI melanoma, with NCI/ADR-RES ovarian, in the assay on OVCAR-4 ovarian and in the assay on RPMI-8226 leukemia was over 25 µM each time. The GI50 with SF-295 CNS, in the assay on SK-MEL-2 melanoma, in the assay on SK-MEL-28 melanoma and in the assay with SN12C renal was over 25 µM throughout. The TGI with HCT-15 colon, with HOP-62 NSCLC, in the assay on LOX IMVI melanoma, in the assay on NCI/ADR-RES ovarian, in the assay with OVCAR-4 ovarian and in the assay on RPMI-8226 leukemia was over 25 µM in each case. The TGI in the assay with SF-295 CNS, with SK-MEL-2 melanoma, with SK-MEL-28 melanoma and in the assay on SN12C renal was over 25 µM in each case.
